Legend:
[1] = system: Progesterone receptor mRNA; assay: Progesterone receptor mRNA regulation in the preoptic area of the rat brain; type: in vivo; conditions: 10 mg/kg
[2] = system: human endometrial tissue implanted into ovariectomized athymic nude mice; assay: Endometriosis test procedure: human endometrial tissue implanted into nude mice; type: in vivo, mouse
Procedure: This procedure is slightly modified from a published method [Bruner-Tran. et al., Journal of Clinical Investigation 99: 2851-2857 (1997)]. […] Lesions are allowed to establish for at least 10 days, then oral daily dosing begins and continues for at least 15 days. It should be noted that all mice have visible lesions at the start of dosing. At necropsy, the number of mice with lesions is determined, as well as the lesions per mouse.

[3] = system: Lewis rats; assay: Lewis rat adjuvant-induced arthritis, treatment protocol: tarsal joint histology (synovitis, Mankin); type: in vivo; conditions: 50 mg/kg, tarsal joints
[4] = Microsomal incubation in the presence of UDPGA (glucuronidation); type: in vitro ADME, rat; conditions: 100 μM, 37° C., 60 mins, with UDPGA
Procedure: An analytical scale incubation of ERB-041 with male SD rat liver microsomes in the presence of UDPGA was conducted in phosphate buffer (0.1 M, pH 7.4) containing 1 mg/mL rat liver microsomal protein with final concentrations of 5 mM magnesium chloride and 4 mM UDPGA. This pilot incubation (1.0 mL incubation volume) was conducted using a substrate concentration of 100 μM at 37° C. for 60 mins. Incubations were terminated by the addition of an equal volume of chilled acetonitrile. Large-scale incubations (a total of 37 incubations @ 5.0 mL incubation volume) to generate sufficient quantities of the glucuronide metabolites for structure elucidation were subsequently conducted as described above at 37° C. for 60 mins. Appropriate substrate controls and incubations without addition of UDPGA were also carried out. Reserved phase-HPLC was utilized for all metabolite analysis. To confirm the formation of glucuronide and sulfate conjugates of ERB-041 in pilot scale incubations, HPLC analysis was performed using an Agilent 1100 LC system equipped with a diode array detector (Agilent Technologies, Wilmington, Del.). […] Separation of the two metabolites was achieved using gradient solvent system B as described supra.

[5] = Cytosolic incubation in the presence of PAPS (sulfation), human; type: in vitro ADME; conditions: 100 μM, 37° C., 60 mins, with PAPS; human liver cytosol
Procedure: These pilot incubations (1.0 mL incubation volume) were conducted using a substrate concentration of 100 μM ERB-041 at 37° C. for 60 mins. Incubations were terminated by the addition of an equal volume of chilled acetonitrile. Reserved phase-HPLC was utilized for all metabolite analysis. To confirm the formation of glucuronide and sulfate conjugates of ERB-041 in pilot scale incubations, HPLC analysis was performed using an Agilent 1100 LC system equipped with a diode array detector (Agilent Technologies, Wilmington, Del.). […] Rat liver and human liver cytosol incubations produced similar profiles. […] Further confirmation of the identity of the isolated metabolites […] and M9 from the large-scale incubations was obtained using LC-MS analysis (ESI, negative ionization). In the large-scale incubation, approximately 23% of ERB-041 was converted to the two sulfate conjugates. Separation of the two sulfate metabolites was achieved using gradient solvent system C described supra.

[6] = system: Female Mongolian gerbils; assay: Transient global ischemia in the Mongolian gerbil: neurogranin mRNA in hippocampus; type: in vivo; conditions: gerbil hippocampus after 5 min global ischemia; s.c. daily
Procedure: Transient global ischemia in the Mongolian gerbil. The effect of test compounds on preventing or treating brain injury in response to oxygen deprivation/reperfusion were measured using the following test procedure.
Female Mongolian gerbils (60-80 g; Charles River Laboratories, Kingston, N.Y.) were housed in the Wyeth-Ayerst animal care facility Association for Assessment and Acreditation of Laboratory Animal Care (AAALAC) certified with a 12-hour light, 12-hour dark photoperiod and free access to tap water and a low-estrogen casein diet (Purina®; Richmond, Ind.). After acclimation (3-5 days), gerbils were anesthetized with isoflurane (2-3% mixture with O2), ovariectomized (Day 0). […] On Day 6, gerbils (n=4-5/group) were anesthetized with isoflurane, the common carotid arteries visualized via a mid-line neck incision and both arteries simultaneously occluded for 5 minutes with non-traumatic micro aneurysm clips. […]
The degree of neuronal protection was evaluated by in situ hybridization analysis of neurogranin mRNA. […]
Neurogranin mRNA was selected for these studies because it is highly expressed in the hippocampal neurons including CA1, but absent in glia and other cell types present in this brain region. […] The results from 6 sections (40 μm apart) per animal were averaged and statistically evaluated. […]

[7] = system: ovulation (number of oocytes ovulated); assay: Ovulation inhibition test procedure; type: in vivo; conditions: 50 mg/kg
Source text: The test procedure is used to determine whether test compounds can inhibit or change the timing of ovulation. It can also be used to determine the number of oocytes ovulated [Lundeen, et al., J Steroid Biochem Mol Biol 78: 137-143 (2001)]. The following data were obtained from representative metabolites of compounds from the invention (Table 22).

Oc1cc(Br)c2oc(-c3ccc(O)c(F)c3)nc2c1 [Example 21, 7-BROMO-2-(3-FLUORO-4-HYDROXYPHENYL)-1,3-BENZOXAZOL-5-OL]
Progesterone receptor mRNA (mean ± stdev) [1]: 110.5 ± 19.3 arbitrary units

C=Cc1cc(O)cc2nc(-c3ccc(O)c(F)c3)oc12 [Example 24, 2-(3-FLUORO-4-HYDROXYPH ENYL)-7-VI NYL-1,3-BENZOXAZOL-5-OL]
lesions at necropsy versus vehicle ([2]; 10 mg/kg, evaluated three times): fewer lesions at necropsy than those mice dosed with vehicle | lesions found per animal ([2]; Study 1, 10 mg/kg oral daily): one lesion | mice with lesion regression ([2]; Study 1, 10 mg/kg oral daily): four of six mice | mice with any lesions at necropsy ([2]; Study 1, 10 mg/kg oral daily, vehicle: four of four mice): two of six mice | Cartilage Cells (0-3), mean ± SD [3]: 0.83 ± 0.75 | Cartilage Structure (0-6), mean ± SD [3]: 1.58 ± 0.49 | Fibroplasia (0-3), mean ± SD [3]: 0.42 ± 0.80 | Inflammatory Cells (0-3), mean ± SD [3]: 1.33 ± 0.41 | Pannus (0-1), mean ± SD [3]: 0.08 ± 0.20 | Saffranin-O/Fast Green Staining (0-4), mean ± SD [3]: 1.25 ± 0.69 | Tidemark Integrity (0-1) [3]: 0 | Total Mankin Score (0-14), mean ± SD [3]: 3.67 ± 1.86 | Total Synovitis Score (0-10), mean ± SD [3]: 3.25 ± 1.54 | Metabolites detected [4]: two major metabolites, M5 and M6, were detected | Metabolites detected [5]: two metabolites (M9A and M9) were detected | Neurogranin mRNA (mean ± stdev) [6]: 0.0 arbitrary units | Number of oocytes (mean ± SEM) [7]: 13.86 ± 0.77
